pIC50: −log10 of the molar value.
Target: A/Denmark/524/2009 (H1N1)pdm09 NA-H274 (Influenza A virus, UniProt C3W5S3)
Format: biochemical

With `CCC(CC)[C@H](NC(C)=O)[C@@H]1[C@H](O)[C@@H](C(=O)O)C[C@H]1N=C(N)N` [peramivir] as the molecule, how does the pIC50 read?
Its pIC50 is 10.00.
